One assay concerns U-87MG. Description: Inhibition of cancer cell proliferation (MTT). The class given is cell-based, human. The method in brief:
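Absorbance at 535 nm of DMSO-dissolved formazan (2 h MTT) gives viability versus 0.08% DMSO-treated cells, and GI50 is derived from eight concentrations between 0.004 and 10 uM. Exposure lasts 72 h at 37 °C, 5% CO2, using 3000 cells/well in 10% FBS medium ([…] for NCI-H23, otherwise DMEM).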

The subject of the next assay is HCT116. Description: Inhibition of cancer cell proliferation (MTT). The class given is cell-based, human.
Another assay deals with SK-N-SH. Description: Inhibition of cancer cell proliferation (MTT). The class given is cell-based, human. The procedure, abridged: (§1)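 72 h MTT proliferation assay; cells seeded at 3000/well (A549, SK-N-SH, SH-SY5Y, NCI-H23) and attached 16 h at 37 °C, then treated at 0.004–10 uM with 0.08% DMSO control. Absorbance at 535 nm read after 2 h MTT; GI50 from viability relative to untreated control.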

A further assay relates to SH-SY5Y. Description: Inhibition of cancer cell proliferation (MTT). The class given is cell-based, human. The method in brief:
as §1

The target of another assay is T1, CDK4/cyclinD1 (Homo sapiens, UniProt P11802).
T1 construct: purchased Signalchem (US)
Description: Inhibition of CDK enzyme activity (ADP-Glo kinase assay). The class given is biochemical. As to conditions: 10 uM ATP, Rb protein substrate; read-out: IC50 CDK4/cyclinD. The procedure, abridged:
(§2)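 Kinase reactions in 50 mM Tris-HCl pH 7.5 with MgCl2, EGTA, EDTA and DTT, at 10 µM ATP. CDK2/cyclinE and CDK5/p25 were used at 10 nM and CDK6/cyclinD3 at 50 nM with 0.125 mg/ml histone H1; CDK4/cyclinD1 was used at 20 nM with 0.125 mg/ml Rb protein. After 60 min at 30 °C, ADP was read by ADP-Glo luminescence and IC50 taken from % inhibition versus no-compound control.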
Background: In ADP-Glo the light output rises with the ADP produced.

Another assay has as its target T2, CDK5/p25 (Homo sapiens, UniProt Q00535).
T2 construct: purchased Merck Millipore
Described as above. The class given is biochemical. As to conditions: 10 uM ATP, histone H1 substrate. The method in brief:
as §2

The target in a further assay is T3, CDK6/cyclinD3 (Homo sapiens, UniProt Q00534).
T3 construct: purchased Merck Millipore
Described as above. The class given is biochemical. As to conditions: 10 uM ATP, histone H1 substrate; read-out: IC50 CDK6/cyclinD. The method in brief: as §2

The target of the next assay is T4, CDK1/cyclinB (Homo sapiens, UniProt P06493).
T4 construct: purchased Merck Millipore
Described as above. The class given is biochemical. As to conditions: 10 uM ATP, histone H1 substrate.

In a further assay the target is T5, CDK2/cyclinE (Homo sapiens, UniProt P24941).
T5 construct: purchased Merck Millipore
The description is as above. As to conditions: 10 uM ATP, histone H1 substrate. The class given is biochemical. The method in brief:
as §2

Five molecules from US20200190062A1, “HETEROCYCLIC COMPOUND AND PHARMACEUTICAL COMPOSITION COMPRISING SAME” (BEYONDBIO INC., priority 2015, published 2020) can be followed below.

In general, GI50 refers to the concentration giving 50% growth inhibition. Read a low GI50 as greater sensitivity of the cells.

The structures appear in SMILES notation. pIC50: −log10 of the molar value. Counter-ions that a name gives are not always drawn.

T3 sequence (Q00534 whole entry): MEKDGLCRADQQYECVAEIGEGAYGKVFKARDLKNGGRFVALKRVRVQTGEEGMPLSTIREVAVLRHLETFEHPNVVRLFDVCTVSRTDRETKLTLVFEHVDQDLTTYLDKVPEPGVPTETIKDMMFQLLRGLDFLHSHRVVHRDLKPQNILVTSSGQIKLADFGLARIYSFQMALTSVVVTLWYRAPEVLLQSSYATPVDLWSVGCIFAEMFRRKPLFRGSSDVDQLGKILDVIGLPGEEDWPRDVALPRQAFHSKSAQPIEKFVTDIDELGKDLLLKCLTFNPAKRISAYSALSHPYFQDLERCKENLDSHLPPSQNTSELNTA
T3 sequence (P30281 whole entry partner): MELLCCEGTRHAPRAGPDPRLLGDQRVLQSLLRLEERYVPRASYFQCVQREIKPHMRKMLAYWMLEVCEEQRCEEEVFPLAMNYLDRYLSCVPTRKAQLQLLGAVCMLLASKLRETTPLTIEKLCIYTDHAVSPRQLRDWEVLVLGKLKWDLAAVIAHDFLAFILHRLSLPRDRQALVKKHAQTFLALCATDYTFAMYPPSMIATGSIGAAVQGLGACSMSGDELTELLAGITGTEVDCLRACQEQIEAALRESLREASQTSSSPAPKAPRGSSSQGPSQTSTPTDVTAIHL
T2 sequence (Q00535 whole entry): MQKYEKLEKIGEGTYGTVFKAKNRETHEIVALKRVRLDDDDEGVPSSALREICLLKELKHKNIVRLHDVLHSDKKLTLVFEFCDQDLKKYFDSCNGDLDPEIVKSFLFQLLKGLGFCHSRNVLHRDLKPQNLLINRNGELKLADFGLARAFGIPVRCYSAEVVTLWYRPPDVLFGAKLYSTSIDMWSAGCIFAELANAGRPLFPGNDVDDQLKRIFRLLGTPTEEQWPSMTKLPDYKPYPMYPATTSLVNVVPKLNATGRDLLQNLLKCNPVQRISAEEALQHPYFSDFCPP
T2 sequence (Q15078 99-307 partner limits assumed): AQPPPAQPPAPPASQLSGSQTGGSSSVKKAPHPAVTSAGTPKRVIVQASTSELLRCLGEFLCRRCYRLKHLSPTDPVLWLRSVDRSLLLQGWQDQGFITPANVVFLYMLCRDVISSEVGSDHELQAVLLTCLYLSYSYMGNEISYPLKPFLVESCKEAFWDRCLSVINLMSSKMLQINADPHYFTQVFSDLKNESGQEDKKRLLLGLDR
T4 sequence (P06493 whole entry): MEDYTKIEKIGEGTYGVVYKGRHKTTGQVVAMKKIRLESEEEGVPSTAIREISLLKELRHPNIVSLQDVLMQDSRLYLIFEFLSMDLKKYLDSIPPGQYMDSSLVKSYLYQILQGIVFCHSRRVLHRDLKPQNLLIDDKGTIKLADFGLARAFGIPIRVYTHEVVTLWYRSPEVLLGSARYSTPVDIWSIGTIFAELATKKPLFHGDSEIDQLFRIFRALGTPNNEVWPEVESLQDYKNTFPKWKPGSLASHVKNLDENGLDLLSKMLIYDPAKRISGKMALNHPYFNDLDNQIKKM
T4 sequence (P14635 whole entry partner): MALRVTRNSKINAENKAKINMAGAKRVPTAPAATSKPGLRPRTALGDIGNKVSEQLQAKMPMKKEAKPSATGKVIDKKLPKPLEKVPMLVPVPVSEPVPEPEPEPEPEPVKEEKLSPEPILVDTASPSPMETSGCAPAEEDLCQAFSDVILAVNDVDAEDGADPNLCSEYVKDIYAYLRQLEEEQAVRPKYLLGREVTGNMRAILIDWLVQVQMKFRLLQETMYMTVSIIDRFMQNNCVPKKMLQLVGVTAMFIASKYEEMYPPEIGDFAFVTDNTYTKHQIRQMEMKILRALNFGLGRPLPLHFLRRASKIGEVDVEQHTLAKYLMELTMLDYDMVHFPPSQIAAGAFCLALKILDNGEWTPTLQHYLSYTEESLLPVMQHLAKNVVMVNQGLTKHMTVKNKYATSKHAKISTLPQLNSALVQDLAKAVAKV
T1 sequence (P11802 whole entry): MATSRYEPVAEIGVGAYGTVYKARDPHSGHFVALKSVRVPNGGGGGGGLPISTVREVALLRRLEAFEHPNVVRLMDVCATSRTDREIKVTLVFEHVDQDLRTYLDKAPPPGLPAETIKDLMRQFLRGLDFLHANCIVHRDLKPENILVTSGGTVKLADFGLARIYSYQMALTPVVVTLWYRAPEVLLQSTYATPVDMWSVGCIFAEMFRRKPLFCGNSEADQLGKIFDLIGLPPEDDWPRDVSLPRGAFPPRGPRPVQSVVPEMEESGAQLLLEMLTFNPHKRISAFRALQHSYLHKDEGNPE
T1 sequence (P24385 whole entry partner): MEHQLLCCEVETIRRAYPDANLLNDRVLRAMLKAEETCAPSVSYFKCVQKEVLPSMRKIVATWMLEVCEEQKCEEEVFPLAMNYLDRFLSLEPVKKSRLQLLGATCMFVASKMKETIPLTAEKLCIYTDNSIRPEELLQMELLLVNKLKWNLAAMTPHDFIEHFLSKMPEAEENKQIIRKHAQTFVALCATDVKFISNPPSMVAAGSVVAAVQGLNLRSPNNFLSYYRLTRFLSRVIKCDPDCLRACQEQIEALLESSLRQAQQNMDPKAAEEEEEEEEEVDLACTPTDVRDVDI

Take `Nc1cc(-c2ccc(O)c(-c3ccnc(N)n3)n2)ccn1` [Example 10, 2′-amino-6-(2-aminopyrimidin-4-yl)-[2,4′-bipyridin]-5-ol]: the GI50 amounted to 380 nM in the assay with U-87MG (Homo sapiens, U-87 MG, 72 h); 260 nM in the assay with HCT116 (Homo sapiens, HCT-116, 72 h); 240 nM in the assay on SK-N-SH (Homo sapiens, SK-N-SH, 72 h); 110 nM with SH-SY5Y (Homo sapiens, SH-SY5Y, 72 h). Besides, the pIC50 at CDK4/cyclinD1 is 6.69; at CDK5/p25, 8.92; at CDK6/cyclinD3 it was below 6.70; against CDK1/cyclinB it was 8.44; against CDK2/cyclinE, 8.59.
For the molecule `Nc1nccc(-c2ccc(O)c(-c3ccnc(N)n3)n2)n1` [Example 61, 2,6-bis(2-aminopyrimidin-4-yl)pyridin-3-ol 3hydrochloride], in the assay with HCT116 (72 hrs), the GI50 is 90 nM. Further, the pIC50 on CDK5/p25 is 9.05; on CDK1/cyclinB, 9.40; on CDK2/cyclinE, 9.30.
As to `Nc1nccc(-c2ccc(O)c(-c3ccnc(N)n3)n2)n1` [Example 1, 2,6-bis(2-aminopyrimidin-4-yl)pyridin-3-ol], the 50% growth inhibitory concentration (GI50) with U-87MG (Homo sapiens, U-87 MG, 72 h) was 850 nM; in the assay with HCT116 (72 hrs), 150 nM; with SK-N-SH (Homo sapiens, SK-N-SH, 72 h), 280 nM; in the assay on SH-SY5Y (Homo sapiens, SH-SY5Y, 72 h), 150 nM. Besides, the pIC50 at CDK4/cyclinD1 is 6.07; on CDK5/p25, 8.62; at CDK6/cyclinD3 it was below 6.70; on CDK1/cyclinB, 8.82; on CDK2/cyclinE, 8.82.
Take `Nc1nccc(-c2nc(-c3ccnc(N)c3F)ccc2O)n1` [Example 8]: the GI50 was 60 nM with U-87MG (72 hrs), 10 nM in the assay with HCT116 (72 hrs), 10 nM in the assay on SK-N-SH (72 hrs) and 10 nM in the assay on SH-SY5Y (72 hrs). For the same molecule, the pIC50 was 6.97 at CDK4/cyclinD1; 9.66 on CDK5/p25; 7.33 at CDK6/cyclinD3; 8.68 on CDK1/cyclinB; 8.68 against CDK2/cyclinE.
Regarding `Cc1cc(-c2nc(-c3ccnc(N)c3F)ccc2O)nc(N)n1` [Example 71, 2′-amino-6-(2-amino-6-methylpyrimidin-4-yl)-3′-fluoro-[2,4′-bipyridin]-5-ol 3hydrochloride], the GI50 in the assay on U-87MG (Homo sapiens, U-87 MG, 72 h) stood at 10 nM; with HCT116 (72 hrs) it was 10 nM. Besides, the pIC50 is 6.90 on CDK4/cyclinD1; 9.52 on CDK5/p25; 7.53 on CDK6/cyclinD3; 9.70 against CDK1/cyclinB; 9.52 at CDK2/cyclinE.
